Results as given in patent US11865114B2, “Method for treating diseases using SMARCA2/4 degraders” (Aurigene Discovery Technologies Limited, priority 2019, dated 2024).

What was measured:
Assay type in all cases: cell-based
[1] = test system: RWPE-1 (ATCC CRL-11609) cells; assay: Anti-proliferative activity by Cell Titer Glo assay in RWPE normal cells
Experimental: (§1) Determination of Anti-Proliferative Activity of SMARCA2/4 Degrader in Cells by Cell Titer Glo® (Promega) Assay
(§2) The prostate cancer cell lines, Vcap (ATCC #CRL-2876), LNCaP-FGC (ATCC CRL-1740), 22RV1 (ATCC CRL-2505), PC-3 (ATCC CRL-1435), DU-145 (ATCC HTB-81) and RWPE-1 (ATCC CRL-11609) were seeded in 96 well plate flat black clear bottom plates (Corning, Cat. No 3904) using respective complete media. Simultaneously cells were seeded for day 0 measurement.
(§3) On the following day, compound 43 of the present invention was added to cells from 10 mM stocks made in DMSO (Sigma Cat no. D2650). DMSO alone was used a vehicle control. Day 0 plate was terminated on day of compound addition using 50 μl of Cell Titer Glo® reagent (Promega, Cat. no G7572). Compound was incubated for 8 days, except for 22RV1 which was incubated for 6 days. Media was replenished with fresh compound on day 4. After the compound incubation, assay was terminated using 50 μl of CellTiter Glo® reagent. CellTiter Glo® Luminescent reagent determines the number of viable cells based on quantitation of ATP present which is an indicator of cell number and metabolic activity. Luminescence readings were taken in fluorescent plate reader.
(§4) Day 0 CTG measurement is designated as time zero (Tz), final CTG measurement in Vehicle control is designated as control growth DMSO (C) and test growth in the presence of drug at the nine concentration levels is designated as (Ti).
(§5) Using the measurements [time zero (Tz), growth control DMSO (C) and test growth in the presence of drug at the nine concentration levels (Ti)] the percentage growth is calculated at each of the drug concentration levels. Percentage response is calculated as: [(Ti−Tz)/(C−Tz)]×100 for Concentrations for which Ti≥Tz [(Ti−Tz)/Tz]×100 for Concentrations for which Ti<Tz
(§6) Three dose response parameters are calculated for each experimental agent. […]
(§7) Compound 43 of the present invention was analyzed against several cell lines representing normal and prostate cancer cells. […]

[2] = test system: DU-145 (ATCC HTB-81) cells; assay: Anti-proliferative activity by Cell Titer Glo assay in DU145 cells
Experimental: as §1, §2, §3, §4, §5, §6, §7

[3] = test system: 22RV1 (ATCC CRL-2505) cells; assay: Anti-proliferative activity by Cell Titer Glo assay in 22RV1 cells
Experimental: as §1, §2, §3, §4, §5, §6, §7

[4] = test system: PC-3 (ATCC CRL-1435) cells; assay: Anti-proliferative activity by Cell Titer Glo assay in PC3 cells
Experimental: as §1, §2, §3, §4, §5
(§8) Three dose response parameters are calculated for each experimental agent. Growth inhibition of 50% (GI50) is calculated from [(Ti−Tz)/(C−Tz)]×100=50, which is the drug concentration resulting in a 50% reduction in the net luminescence increase (measured ATP) in control cells during the drug incubation.
(§9) The LC50 (concentration of drug resulting in a 50% reduction in the measured ATP at the end of the drug treatment as compared to that at the beginning) indicating a net loss of cells following treatment is calculated from [(Ti−Tz)/Tz]×100=−50.
(§10) Compound 43 of the present invention was analyzed against several cell lines representing normal and prostate cancer cells. The cell lines used in the present invention are harboring one or more tumor specific alterations such as presence of AR, PTEN mutations or TMPRSS2-ERG fusion which are presented below.

[5] = test system: Vcap (ATCC #CRL-2876) cells; assay: Anti-proliferative activity by Cell Titer Glo assay in VCap cells
Experimental: as §1, §2, §3, §4, §5, §8, §9, §10

[6] = test system: LNCaP-FGC (ATCC CRL-1740) cells; assay: Anti-proliferative activity by Cell Titer Glo assay in LNCaP-FGC cells
Experimental: as §1, §2, §3, §4, §5, §8, §9, §10

Compound: Cc1ncsc1-c1ccc([C@H](C)NC(=O)[C@@H]2C[C@@H](O)CN2C(=O)[C@@H](NC(=O)CN2CCN(c3cc(-c4ccccc4O)nnc3N)CC2)C(C)(C)C)cc1 [Compound 43]
- GI50 ([1]; Homo sapiens, RWPE-1, 192 h, RWPE (Normal) cells, normal AR, no PTEN mutation, no TMPRSS2-ERG fusion, 8 days incubation): 260 nM
- Observed cell killing ([1]; RWPE (Normal) cells, 8 days incubation): No
- Inhibition of cell growth and cell killing (in words) ([1]; normal cell (RWPE), FIG. 1): did not show any inhibition and cell killing
- Inhibition of cell growth and cell killing (in words) ([2]; DU145, none of the tumor specific alterations, FIG. 2): neither inhibition of cell growth nor cell killing was observed
- Observed cell killing ([2]; DU145 cells, 8 days incubation): No
- GI50 ([2]; Homo sapiens, DU-145, 192 h, DU145 cells, none of the tumor-specific alterations, 8 days incubation): > 10000 nM
- Inhibition of cell growth and cell killing (in words) ([3]; 22RV1, one tumor-specific alteration, FIG. 3A): potently inhibited with no or moderate cell killing
- Observed cell killing ([3]; 22RV1 cells, 6 days incubation): No
- GI50 ([3]; Homo sapiens, 144 h, 22RV1 cells, AR dependence +, 6 days incubation): 14 nM
- GI50 ([4]; Homo sapiens, PC-3, 192 h, PC3 cells, PTEN mutation +, 8 days incubation): 51 nM
- CC50 ([4]; Homo sapiens, PC-3, PC3 cells, 50% reduction in measured ATP versus day 0, 8 days incubation, read-out: LC50 (the source's name)): 3410 nM
- Inhibition of cell growth and cell killing (in words) ([4]; PC3, one tumor-specific alteration, FIG. 3B): potently inhibited with no or moderate cell killing
- Observed cell killing ([4]; PC3 cells, 8 days incubation): Yes
- GI50 ([5]; Homo sapiens, 192 h, VCap cells, AR dependence +, TMPRSS2-ERG fusion +, 8 days incubation): 3 nM
- CC50 ([5]; Homo sapiens, VCap cells, 50% reduction in measured ATP versus day 0, 8 days incubation, read-out: LC50 (the source's name)): 11 nM
- Observed cell killing ([5]; VCap cells, 8 days incubation): Yes
- Inhibition of cell growth and cell killing (in words) ([5]; VCap, two tumor specific alterations, FIG. 4A): both growth and cell killing were potently impacted
- GI50 ([6]; 192 h, LnCapFGC cells, AR dependence +, PTEN mutation +, 8 days incubation): 5 nM
- CC50 ([6]; LnCapFGC cells, 50% reduction in measured ATP versus day 0, 8 days incubation, read-out: LC50 (the source's name)): 22 nM
- Observed cell killing ([6]; LnCapFGC cells, 8 days incubation): Yes
- Inhibition of cell growth and cell killing (in words) ([6]; LnCapFGC, two tumor specific alterations, FIG. 4B): both growth and cell killing were potently impacted
